Usually Ki stands for the equilibrium dissociation constant of an inhibitor or competing ligand from its target. A higher Ki goes with lower affinity. The Km is the concentration of substrate that gives half-maximal velocity.

Format in all cases: functional, cell membranes, Sprague-Dawley, Bile canalicular membrane vesicle
The target in data set [1] is T1, ATP-binding cassette sub-family C member 2 (Rattus norvegicus, UniProt Q63120). As to the kind of experiment: TP_TRANSPORTER: inhibition of DNP-SG uptake in bile canalicular membrane vesicles from SD rat.
The target in data set [2] is T1, ATP-binding cassette sub-family C member 2. Nature of the data set: TP_TRANSPORTER: inhibition of DNP-SG uptake (DNP-SG: 1 uM, 4MUG: 500 uM) in bile canalicular membrane vesicles from SD rat.
Substrate in data set [3]: CNc1nc2c(Cc3cccnc3)c(C)c(O[C@@H]3O[C@H](C(=O)O)[C@@H](O)[C@H](O)[C@H]3O)c(C)c2s1
As to the kind of experiment: (§1) TP_TRANSPORTER: uptake in bile canalicular membrane vesicles from SD rat.

Substrate in data set [4]: N[C@@H](CCC(=O)N[C@H](CSc1ccc([N+](=O)[O-])cc1[N+](=O)[O-])C(=O)NCC(=O)O)C(=O)O
The description is as §1.

Molecule `CNc1nc2c(Cc3cccnc3)c(C)c(O[C@@H]3O[C@H](C(=O)O)[C@@H](O)[C@H](O)[C@H]3O)c(C)c2s1` [E3040 GLUCURONIDE] came in with a Ki in data set [1] of 3.84 µM.
`O=C(O)[C@H]1O[C@@H](OCc2cc(=O)oc3cc(O)ccc23)[C@H](O)[C@@H](O)[C@@H]1O`: the Activity entry in data set [2] was “inhibitor [+]”.

B1: ATP-binding cassette sub-family C member 2 (Rattus norvegicus) (protein)
chain: MDKFCNSTFWDLSLLESPEADLPLCFEQTVLVWIPLGFLWLLAPWQLYSVYRSRTKRSSITKFYLAKQVFVVFLLILAAIDLSLALTEDTGQATVPPVRYTNPILYLCTWLLVLAVQHSRQWCVRKNSWFLSLFWILSVLCGVFQFQTLIRALLKDSKSNMAYSYLFFVSYGFQIVLLILTAFSGPSDSTQTPSVTASFLSSITFSWYDRTVLKGYKHPLTLEDVWDIDEGFKTRSVTSKFEAAMTKDLQKARQAFQRRLQKSQRKPEATLHGLNKKQSQSQDVLVLEEAKKKSEKTTKDYPKSWLIKSLFKTFHVVILKSFILKLIHDLLVFLNPQLLKLLIGFVKSSNSYVWFGYICAILMFAVTLIQSFCLQSYFQHCFVLGMCVRTTVMSSIYKKALTLSNLARKQYTIGETVNLMSVDSQKLMDATNYMQLVWSSVIQITLSIFFLWRELGPSILAGVGVMVLLIPVNGVLATKIRNIQVQNMKNKDKRLKIMNEILSGIKILKYFAWEPSFQEQVQGIRKKELKNLLRFGQLQSLLIFILQITPILVSVVTFSVYVLVDSANVLNAEKAFTSITLFNILRFPLSMLPMVTSSILQASVSVDRLERYLGGDDLDTSAIRRVSNFDKAVKFSEASFTWDPDLEATIQDVNLDIKPGQLVAVVGTVGSGKSSLVSAMLGEMENVHGHITIQGSTAYVPQQSWIQNGTIKDNILFGSEYNEKKYQQVLKACALLPDLEILPGGDMAEIGEKGINLSGGQKQRVSLARAAYQDADIYILDDPLSAVDAHVGKHIFNKVVGPNGLLAGKTRIFVTHGIHFLPQVDEIVVLGKGTILEKGSYRDLLDKKGVFARNWKTFMKHSGPEGEATVNNDSEAEDDDDGLIPTMEEIPEDAASLAMRRENSLRRTLSRSSRSSSRRGKSLKNSLKIKNVNVLKEKEKEVEGQKLIKKEFVETGKVKFSIYLKYLQAVGWWSILFIILFYGLNNVAFIGSNLWLSAWTSDSDNLNGTNNSSSHRDMRIGVFGALGLAQGICLLISTLWSIYACRNASKALHGQLLTNILRAPMRFFDTTPTGRIVNRFSGDISTVDDLLPQTLRSWMMCFFGIAGTLVMICMATPVFAIIIIPLSILYISVQVFYVATSRQLRRLDSVTKSPIYSHFSETVTGLPIIRAFEHQQRFLAWNEKQIDINQKCVFSWITSNRWLAIRLELVGNLVVFCSALLLVIYRKTLTGDVVGFVLSNALNITQTLNWLVRMTSEAETNIVAVERISEYINVENEAPWVTDKRPPADWPRHGEIQFNNYQVRYRPELDLVLKGITCNIKSGEKVGVVGRTGAGKSSLTNCLFRILESAGGQIIIDGIDVASIGLHDLRERLTIIPQDPILFSGSLRMNLDPFNKYSDEEVWRALELAHLRSFVSGLQLGLLSEVTEGGDNLSIGQRQLLCLGRAVLRKSKILVLDEATAAVDLETDSLIQTTIRKEFSQCTVITIAHRLHTIMDSDKIMVLDNGKIVEYGSPEELLSNRGSFYLMAKEAGIENVNHTEL
On to B1, for which the Km in data set [3] was 5.7 µM; in data set [4] it was 17.6 µM.

These data come from ChEMBL document CHEMBL2073965, “Kinetic analysis of the primary active transport of conjugated metabolites across the bile canalicular membrane: comparative study of S-(2,4-dinitrophenyl)-glutathione and 6-hydroxy-5,7-dimethyl-2-methylamino-4-(3-pyridylmethyl)benzothiazole glucuronide” (J Pharmacol Exp Ther, 1997).
